“Also recorded” adds a separate entry of the source.
What was measured:
[1] = system: outer hair cells (OHCs) and inner hair cells (IHCs); experiment: Cochlear explant model: hair cell protection against cisplatin; format: cell-based, Sprague-Dawley rats; conditions: for EC100: Rattus norvegicus, read-out: Ex-vivo Efficacy Conc. for complete protection of hair cells (uM)
Text: (§1) For hair cell and spiral ganglion assessment, postnatal Sprague-Dawley rats (P2-P4) of both sexes are anesthetized with isoflurane and decapitated. Temporal bones are removed and transferred to a cell culture dish with ice-cold Ca^2+/Mg^2+-containing phosphate-buffered saline (PBS; Invitrogen) or cold HBSS medium enriched with glucose. Under microscopic visualization, the cochlear capsules are carefully removed from the temporal bone using forceps and transferred to a new cell culture dish containing ice-cold PBS. The cochleae are then dissected from the cochlear capsule using fine forceps. The stria vascularis is removed from the cochlear tissue and discarded. Dissected cochlear epithelia are transferred to permeable membrane inserts (Millicell organotypic culture plate inserts, Millipore) which are placed into 1 mL of culture media (Dulbecco's modified Eagle's medium (high glucose, Glutamax, 25 mM HEPES) with 10% fetal bovine serum, 1% N2 supplement and 10 units/ml penicillin) in a 6-well plate. Up to 4 cochleae are placed onto each membrane. Explants are placed in a humidified chamber with 5% CO2 at 37° C. for a minimum of 18 hours prior to treatment. Cultures are then pre-treated with test compounds and returned to the incubator for a period of 10 minutes to 48 hours.
(§2) Following the incubation period, cochlear samples are fixed in 4% paraformaldehyde for a minimum of 30 minutes after treatment then permeabilized in 0.5% Triton in PBS (PBST) for 1 hour, followed by overnight incubation at 4° C. in primary antibodies in 10% goat or donkey serum (Sigma). Samples are then rinsed in PBST 2 times for 10 minutes each then incubated in alexa-488 conjugated secondary antibodies for 2 hours at room temperature or overnight at 4° C. in 10% goat or donkey serum (Sigma). Samples are then rinsed 2 times in PBS then incubated in DAPI (1:3000) in PBS for 5 minutes prior to mounting on slides. To evaluate the otoprotective efficacy of the compounds, cochlear samples are immunostained using combination of antibodies generated against markers specific for hair cells (Myosin V1, Myosin VIIA, Parvalbumin, etc.), SGNs (TUJ1, Neurofilament, etc.), f-actin, cell death, cell stress, etc. as well as a nuclear stain to identify cell nuclei.
(§3) Immunostained samples are mounted on glass slides and imaged with an LSM880 laser scanning confocal microscope (Zeiss) or an Operetta high-content imager (Perkin Elmer). The entire explant is imaged for all antibody and nuclear labeling in a 3-dimensional X-Y-Z plane in which the Z-plane consists of a stack imaged at intervals of 0.5-5 μm. The total length of the organ of Corti in each explant is then determined and is divided into 4 equal length regions. Basal, middle and apical hair cells or SGNS are counted at the regions approximately 25%, 50% or 75% of the total cochlear length from the base, respectively. Hair cell survival is determined by counting the number of inner and outer hair cells at these three different regions (base, middle and apex) in each cochlear explant and determining the number of missing/dead hair cells per cochlear region. Hair cell counts are obtained by placing a 200 μm length scale bar parallel to the rows of hair cells at each region and manually counting the total number of outer hair cells (OHCs) and inner hair cells (IHCs) within the 200 μm. Similarly, to evaluate the health and survival of SGNs, the density of SGN fibers or soma is also determined per region by manual counting for same region selected for counting hair cells. Nuclear staining is analyzed to confirm the presence or absence of cell nuclei and to evaluate nuclear health. Image analysis and quantification is performed using Zeiss Zen Blue software, or Perkin Elmer Columbus software.
(§4) Neonatal (P2-P4) Sprague-Dawley rats were used for the experiments described here. Animals were euthanized following anesthesia using isoflurane. Rat cochleae were then dissected in cold HBSS medium enriched with glucose. […]

[2] = Cisplatin binding, % bound
[3] = system: cisplatin-induced hearing loss (CIHL); experiment: 3-day acute CIHL animal model, ABR thresholds; format: in vivo; conditions: 3 days
Experimental: Study Design includes: […] Formulation was delivered IT unilaterally (right ear) 30 min prior CIS. There was gross visual necropsy observation performed at termination. Tissue collected for CCG evaluation • A: Cis IP/Vehicle P407 • B: Cis IP/STS 16 mg/ml in P407 • C: Cis IP/OMY-150 16 mg/ml in P407 • D: Cis IP/OMY-150 50 mg/ml in P407

[4] = Cisplatin reaction kinetics by HPLC; conditions: 50 μM cisplatin + 50 μM of compound (API) in PBS, pH 7.4, 37° C.
Experimental: Reaction kinetics between Cisplatin and the compound of interest (nucleophile) were monitored by high performance liquid chromatography. Isocratic separation was achieved using a Waters Spherisorb C8 column (4×250 mm, 5 μm, 80 Å). The flow rate was set to 1.00 mL/min. The mobile phase consisted of 5 mM Sodium Octanesulfonate+5 mM Tetrabutyl Ammonium Hydrogen Sulfate+20 mM Potassium Dihydrogen Phosphate adjusted to pH 5.9. Detection was performed at a wavelength of 210 nm.
Reactions were conducted at equimolar concentrations in buffered aqueous media and held at 37° C. Rate constants (k) were determined by monitoring the disappearance of Cisplatin as a function of time.

[5] = Pharmacokinetic study after intratympanic administration; format: in vivo, rats
Experimental: Female rats (Charles River) weighing 200-300 g of approximately 12-16 weeks of age served as subjects (N=4 per group). Prior to any procedures, animals were anesthetized using a combination of xylazine (10 mg/kg), ketamine (50 mg/kg), and acepromazine (1 mg/kg) for up to an hour via the intraperitoneal route. If needed, an intraoperative booster was administered intraperitoneal representing a one-tenth of the original dose.
Intratympanic injection—Each animal was positioned so that the head was tilted at an angle to favor injection towards the round window niche. […] Formulations were delivered using a perfusion pump at the rate of 2 μL/sec. Contact with the round window membrane was maintained for 30 minutes by placing the animal in a recumbent position. During the procedure and until recovery, animals were placed on a temperature controlled (40° C.) heating pad until consciousness was regained at which time they were returned to the vivarium.
Perilymph sampling procedure—The skin behind the ear of anesthetized rats was shaved and disinfected with povidone-iodine. An incision was then made behind the ear, and muscles were carefully retracted from over the bulla. A hole was drilled through the bulla using a dental burr so that the middle ear was exposed and accessed. The cochlea and the round window membrane were visualized under a stereo surgical microscope. The basal turn of bulla was cleaned by using small cotton ball. A unique microhole was hand drilled through the bony shell of the cochlea (cochlear capsule) adjacent to the round window. Perilymph (about 2 μL) was then collected using a microcapillary inserted into the cochlear scala tympani. Perilymph samples were added to a vial containing 18 μL of acetonitrile/water, stored at −80° C. until analysis.
Cochlear epithelium sampling procedure—Under a dissection scope, the bulla was opened, and the cochlea was exposed by removing all surrounding muscles, blood vessels and bone tissues. Holding the bulla, the cochlear wall bony structure was removed working from the base to the apex of the cochlea, exposing the organ of Corti. The exposed cochlear epithelium was gently dabbed with cotton swab to remove excess of liquid from tissue, carefully transferred to labelled tube. Each 2-mL plastic tube that contained acid washed 2.8 mm stainless steel beads was pre-weighed. The tubes were reweighed after adding cochlea epithelium and weights were recorded. All cochlea epithelium samples were placed in dry ice immediately after collection and stored at −80° C. prior to analysis.
Plasma sampling procedure—Blood samples were collected by cardiac puncture into labeled micro-tubes, containing lithium heparin as anticoagulant. Plasma were immediately harvested from the blood by centrifugation and collection for supernatants. All plasma samples were stored at −80° C. prior to analysis.
Samples were extracted by protein precipitation, then vortexed and centrifuged. The supernatant was collected and diluted with two folds of water. A high-performance liquid chromatography system (Agilent 1200 series) with Waters Cortecs C18 Plus column (50*4.6 mm, 2.7 μm) were used. The flow rate was set at 0.700 mL/min. A gradient method with an analytical run time of 5 minutes was used. Mobile phase A consisted of 0.01% ammonium formate, 0.03% formic acid in water. Mobile phase B consisted of 0.01% ammonium formate, 0.03% formic acid in acetonitrile: methanol (70:30, v/v). The gradient began with 30% B, stepped to 70% B at 2.75 minutes and held for 1 minute and then stepped back to 30% B to re-equilibrate the column.
Ionizations and detection of analyte and internal standard were performed on a triple quadruple mass spectrometer, API 5500 Q-Trap equipped with Turbo IonSpray@, from SCIEX (Toronto, Canada). Electro spray ionization (ESI) mass spectra was operated in the positive ion mode. Carbutamide was used as the internal standard (IS). […]

[6] = system: spiral ganglion neurons (SGNs); experiment: Cochlear explant model: spiral ganglion neuron protection against cisplatin; format: cell-based, Sprague-Dawley rats
Text: as §1, §2, §3, §4

stria vascularis cells = experiment: Dissociated strial cultures, caspase 3/7 activation with cisplatin; format: cell-based, Sprague-Dawley rats
Experimental: For strial explants, the stria vascularis is isolated from the cochlear tissue and transferred to a clean dish with cell culture media. For dissociated strial cultures, the stria vascularis is pulled off the lateral wall and collected separately. Strial cells are then dissociated using a pipette post-trypsinization and seeded onto Poly-d-lysine or collagen-coated 96-well plates. Cells are grown for 48-72 hours to achieve 80-90% confluency before treatment. […] Following treatment, cells are exposed to the Caspase-Glo 3/7 (Promega) reagent for 30 minutes then […] is read on a plate reader. In addition to the cell culture media described above, strial explants can also be maintained in the following media: MEM with Earle's salts, 15 mM HEPES buffer, 2 mM L-glutamine, 10 mg/L MEM non-essential amino acids, 2.5 mg/L fungizone, 100 units/ml penicillin, 100 mg/L streptomycin, 400 μg/L hydrocortisone, 5 mg/L transferrin, 2 nM triiodothyronine, 5 mg/L insulin, […], 10 μg/L epidermal growth factor, and 10% fetal bovine serum.
Following cochlear dissection, Reissner's membrane and the lateral wall were separated and the stria vascularis was then removed from the lateral wall. […] After incubation, cells were lysed using the Promega caspase 3/7 Glo kit and the intensity of caspase 3/7 were read using Perkin-Elmer Enspire plate reader.

[7] = 16 mg/ml in P407, IT 30 min prior CIS 12 mg/kg (IP)
[8] = 1.5 hour pretreatment followed by co-treatment at different concentrations with 10 μM cisplatin

Row | Structure (SMILES) | Ex-vivo Efficacy Conc. for complete protection of hair cells ([1]; ex vivo cochlear explants, cisplatin) [µM] | Cisplatin Binding % bound (in 30 min) at 1:10 ratio [2] [%] | protection of ABR thresholds [3, 7] | k [4] [M⁻¹ s⁻¹] | In vivo PK in Cochlear Epithelium (24 h after dosing) [5] [ng/gm CE] | EC100 [1] [µM] | OHC protection ([1]; ex-vivo cochlear explants) | SGN protection ([6]; ex-vivo cochlear explants) | strial cell protection (stria vascularis cells) | protection of hair cells against cisplatin [1, 8] | protection of spiral ganglion neurons against cisplatin [6, 8] | protection of ABR thresholds ([3]; 50 mg/ml in P407, IT 30 min prior CIS 12 mg/kg (IP)) | plasma exposure after IT injection ([5]; single IT injection) | perilymph and cochlear epithelium exposure after IT injection ([5]; single IT injection, MCT and/or poloxamer formulation)
1 | O=S([O-])([O-])=S.[Na+].[Na+] [STS, sodium thiosulfate, reference compound] | 100 | 50 | less protection than in previous studies | 0.52 | ~1100 | – | – | – | – | – | – | – | – | –
2 | O=C(O)c1c[nH]c(=S)[nH]c1=O [5-carboxy-2-thiouracil] | – | 95 | – | – | – | 50 to 100 | good protection | good protection | good protection | – | – | – | – | –
3 | O=c1cc(-c2ccccc2)[nH]c(=S)[nH]1 [OMY-150, 6-phenyl-2-thiouracil] | – | 97 | strong protection | 0.50 | ~1000 | 50 | – | – | – | complete protection | complete protection | almost complete recovery | significantly lower (e.g. up to 10 times or more) plasma exposure than OMY-141; also recorded: lower plasma exposure than sodium thiosulfate (STS) | good perilymph and cochlear epithelium exposure

From patent US20230293524A1, “OTIC FORMULATIONS FOR DRUG-INDUCED OTOTOXICITY” (Spiral Therapeutics Inc, priority 2019, published 2023)
